SMILES strings stand for the structures. Read-outs that look alike come from different tables or passages of the source.

One assay concerns the target T1, human NPR1 (Homo sapiens, UniProt P16066).
T1 construct: host or cells: CHO-K1
T1 sequence (P16066 33-1061): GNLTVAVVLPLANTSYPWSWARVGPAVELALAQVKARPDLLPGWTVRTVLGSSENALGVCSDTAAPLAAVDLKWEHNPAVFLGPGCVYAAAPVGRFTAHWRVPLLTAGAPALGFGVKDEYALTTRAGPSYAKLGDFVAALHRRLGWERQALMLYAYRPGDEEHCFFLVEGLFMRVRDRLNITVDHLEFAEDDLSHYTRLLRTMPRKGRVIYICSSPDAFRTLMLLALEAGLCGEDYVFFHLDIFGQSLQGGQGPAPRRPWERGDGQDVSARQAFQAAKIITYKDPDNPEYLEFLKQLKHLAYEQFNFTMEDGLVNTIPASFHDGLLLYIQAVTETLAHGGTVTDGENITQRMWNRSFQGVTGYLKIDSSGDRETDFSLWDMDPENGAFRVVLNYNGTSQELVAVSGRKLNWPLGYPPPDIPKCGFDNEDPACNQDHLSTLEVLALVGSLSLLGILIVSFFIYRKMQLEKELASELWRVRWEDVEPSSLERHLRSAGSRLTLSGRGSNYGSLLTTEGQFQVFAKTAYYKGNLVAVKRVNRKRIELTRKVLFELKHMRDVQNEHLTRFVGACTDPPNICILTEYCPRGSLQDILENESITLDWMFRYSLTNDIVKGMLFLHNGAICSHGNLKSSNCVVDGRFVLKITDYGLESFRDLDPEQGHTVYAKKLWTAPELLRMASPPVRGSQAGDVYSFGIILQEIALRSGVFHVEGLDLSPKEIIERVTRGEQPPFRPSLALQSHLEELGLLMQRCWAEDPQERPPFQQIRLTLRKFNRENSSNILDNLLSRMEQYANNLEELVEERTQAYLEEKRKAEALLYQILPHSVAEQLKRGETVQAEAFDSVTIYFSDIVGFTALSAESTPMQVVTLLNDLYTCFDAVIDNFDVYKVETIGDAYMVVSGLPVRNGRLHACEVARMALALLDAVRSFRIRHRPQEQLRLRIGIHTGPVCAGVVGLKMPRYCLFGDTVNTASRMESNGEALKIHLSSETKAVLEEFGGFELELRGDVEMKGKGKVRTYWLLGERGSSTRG
The assay is described as follows: Cellular cGMP production assay, human NPR1 expressing CHO-K1 cells (CisBio HTRF). The format is cell-based. The note with it: for AC50: cGMP production, 30 min at 37° C., 12-point dose-response from 30 μM; for Human NPR1 Amax (% of ANP): maximum cGMP production as percentage of the maximum cGMP produced with ANP. How it is done: (§1) Cellular cGMP is a major second messenger that mediates cell activities and is synthesized by activated NPR1 triggered by binding of the natural ligand ANP. […] The assay was performed according to manufacturer's instructions with minor deviations. […] All compound stocks were diluted in PBS+0.1% BSA at 2-fold the final assay concentration. After addition of 10 μL/well of assay buffer (PBS+0.1% BSA+1 mM IBMX) and 10 μL/well of the compounds in different concentrations (12-point dose-response with 3-fold dilutions from a top concentration of 30 μM), the plate was incubated for 30 min at 37° C. to allow for cGMP production. In parallel, a standard curve using a calibrator (contained in the kit) was generated. The cells were lysed and a mix of cGMP-d2 and anti-cGMP-cryptate was added and incubated for 1 h at room temperature. The readout was performed using an Envision plate reader (PerkinElmer) with an excitation wavelength of 317 nm and an emission wavelength of 665 nm. cGMP concentration (Delta F [° %]) was calculated according to the following formulae: […]

In another assay the target is monkey NPR1 (Macaca fascicularis, UniProt A0A7N9DBT9). The assay can be described thus: Cellular cGMP production assay, monkey NPR1 expressing CHO-K1 cells (CisBio HTRF). The format is cell-based. The note with it: for Monkey NPR1 Amax (% of ANP): maximum cGMP production as percentage of the maximum cGMP produced with ANP. How it is done:
as §1
For orientation: Time-resolved FRET reads energy transfer from a long-lived donor to a nearby acceptor.

Where [1] appears, read: cGMP production, monkey NPR1 CHO-K1 cells, 30 min at 37° C., 12-point dose-response from 30 μM, read-out: Monkey NPR1 AC50.

Sequence of monkey NPR1 (A0A7N9DBT9 entry or part of it): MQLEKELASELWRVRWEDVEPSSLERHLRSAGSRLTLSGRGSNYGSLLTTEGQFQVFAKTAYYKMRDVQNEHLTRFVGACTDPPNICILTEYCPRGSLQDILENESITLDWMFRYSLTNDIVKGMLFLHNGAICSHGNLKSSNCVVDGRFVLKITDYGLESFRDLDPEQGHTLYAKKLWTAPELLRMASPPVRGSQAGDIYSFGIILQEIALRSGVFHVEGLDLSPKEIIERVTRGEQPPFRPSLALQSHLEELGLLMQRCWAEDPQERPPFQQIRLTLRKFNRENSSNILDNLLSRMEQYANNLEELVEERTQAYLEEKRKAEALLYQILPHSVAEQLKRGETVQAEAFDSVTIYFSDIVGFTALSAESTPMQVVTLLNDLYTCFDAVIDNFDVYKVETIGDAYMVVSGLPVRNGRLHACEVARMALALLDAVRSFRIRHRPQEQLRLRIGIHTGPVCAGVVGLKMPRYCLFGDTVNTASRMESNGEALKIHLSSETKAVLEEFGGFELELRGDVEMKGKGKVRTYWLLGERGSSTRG

Usually AC50 stands for the concentration giving half of the maximal activity seen. As for `CC[C@@H](Nc1nc2c(c(N[C@H](CN3CCC[C@H](C)C3)c3cnn(C)c3)n1)C[C@](C)(c1cccc(F)c1)CC2)[C@H]1CC[C@H](C(=O)O)CC1` (stereo in doubt) [Compound 130, (1S,4r)-4-((S)-1-(((S)-6-(3-fluorophenyl)-6-methyl-4-(((R)-1-(1-methyl-1H-pyrazol-4-yl)-2-((R)-3-methylpiperidin-1-yl)ethyl)amino)-5,6,7,8-tetrahydroquinazolin-2-yl)amino)propyl)cyclohexane-1-carboxylic acid], at human NPR1, the half-maximal activity concentration (AC50) was determined as 671 nM and the “Human NPR1 Amax (% of ANP)” value is 88.663 % of ANP. Besides, the AC50 at monkey NPR1 (setting [1]) was 205 nM. Further, the “Monkey NPR1 Amax (% of ANP)” value at monkey NPR1 (monkey NPR1 CHO-K1 cells) is on record as 114.798 % of ANP.

As for `CC[C@@H](N(C)c1nc2c(c(N[C@@H](CN3CCCCCC3)c3cnn(C)c3)n1)C[C@H](c1cccc(F)c1)CC2)C12CC(C(=O)O)(C1)C2` [Compound 1, 3-((R)-1-(((R)-4-(((R)-2-(azepan-1-yl)-1-(1-methyl-1H-pyrazol-4-yl)ethyl)amino)-6-(3-fluorophenyl)-5,6,7,8-tetrahydroquinazolin-2-yl)(methyl)amino)propyl)bicyclo[1.1.1]pentane-1-carboxylic acid], at human NPR1, half-maximal activity (AC50) was put at 14 nM and the “Human NPR1 Amax (% of ANP)” value was 93.788 % of ANP. Further, the AC50 at monkey NPR1 (setting [1]) was 10 nM. Also, the “Monkey NPR1 Amax (% of ANP)” value on monkey NPR1 (monkey NPR1 CHO-K1 cells) is reported as 97.462 % of ANP.

With `CC[C@@H](Nc1nc2c(c(N[C@@H](CN3CCC[C@H](C)C3)c3cnn(C)c3)n1)C[C@](C)(c1cccc(F)c1)CC2)[C@H]1CC[C@H](C(=O)O)CC1` [Compound 2, (1R,4r)-4-((R)-1-(((R)-6-(3-fluorophenyl)-6-methyl-4-(((R)-1-(1-methyl-1H-pyrazol-4-yl)-2-((S)-3-methylpiperidin-1-yl)ethyl)amino)-5,6,7,8-tetrahydroquinazolin-2-yl)amino)propyl)cyclohexane-1-carboxylic acid], at human NPR1, the AC50 is 42 nM and the “Human NPR1 Amax (% of ANP)” value is 96.935 % of ANP. On monkey NPR1 (setting [1]), the AC50 amounted to 44 nM. The “Monkey NPR1 Amax (% of ANP)” value at monkey NPR1 (monkey NPR1 CHO-K1 cells) is 103.371 % of ANP.

With `CC[C@@H](Nc1nc2c(c(N[C@@H](CN3CCCCCC3)c3cnn(C)c3)n1)C[C@H](c1cccc(F)c1)CC2)[C@H]1CC[C@H](C(=O)O)CC1` [Compound 3, (1R,4r)-4-((R)-1-(((R)-4-(((R)-2-(azepan-1-yl)-1-(1-methyl-1H-pyrazol-4-yl)ethyl)amino)-6-(3-fluorophenyl)-5,6,7,8-tetrahydroquinazolin-2-yl)amino)propyl)cyclohexane-1-carboxylic acid], on human NPR1, the AC50 was 66 nM and the “Human NPR1 Amax (% of ANP)” value is 105.403 % of ANP. The AC50 at monkey NPR1 (setting [1]) worked out at 45 nM. The “Monkey NPR1 Amax (% of ANP)” value on monkey NPR1 (monkey NPR1 CHO-K1 cells) is recorded as 107.571 % of ANP.

`CC[C@@H](N(C)c1nc2c(c(N[C@H](CN3CCCCCC3)c3cnn(C)c3)n1)C[C@H](c1cccc(F)c1)CC2)C12CC(C(=O)O)(C1)C2` [Compound 4, 3-((R)-1-(((R)-4-(((S)-2-(azepan-1-yl)-1-(1-methyl-1H-pyrazol-4-yl)ethyl)amino)-6-(3-fluorophenyl)-5,6,7,8-tetrahydroquinazolin-2-yl)(methyl)amino)propyl)bicyclo[1.1.1]pentane-1-carboxylic acid]: at human NPR1, the AC50 turned out to be 72 nM and the “Human NPR1 Amax (% of ANP)” value is 99.041 % of ANP. Moreover, on monkey NPR1 (setting [1]), the AC50 was determined as 70 nM. Further, the “Monkey NPR1 Amax (% of ANP)” value at monkey NPR1 (monkey NPR1 CHO-K1 cells) is given as 101.838 % of ANP.

With `CC[C@@H](Nc1nc2c(c(N[C@@H](CN3CCC[C@H](C)C3)c3cnn(C)c3)n1)C[C@](C)(c1ccc(F)cc1)CC2)[C@H]1CC[C@H](C(=O)O)CC1` [Compound 5, (1R,4r)-4-((R)-1-(((R)-6-(4-fluorophenyl)-6-methyl-4-(((R)-1-(1-methyl-1H-pyrazol-4-yl)-2-((S)-3-methylpiperidin-1-yl)ethyl)amino)-5,6,7,8-tetrahydroquinazolin-2-yl)amino)propyl)cyclohexane-1-carboxylic acid], at human NPR1, the activity was half-maximal at 72 nM (AC50) and the “Human NPR1 Amax (% of ANP)” value is listed as 85.741 % of ANP. The AC50 at monkey NPR1 (setting [1]) was determined as 68 nM. Further, the “Monkey NPR1 Amax (% of ANP)” value on monkey NPR1 (monkey NPR1 CHO-K1 cells) is 104.503 % of ANP.

In the case of `CC[C@@H](N(C)c1nc2c(c(N[C@@H](CN3C4CCCC3CCC4)c3cnn(C)c3)n1)C[C@H](c1cccc(F)c1)CC2)C12CC(C(=O)O)(C1)C2` [Compound 6, 3-((R)-1-(((R)-4-(((R)-2-((1S,5S)-9-azabicyclo[3.3.1]nonan-9-yl)-1-(1-methyl-1H-pyrazol-4-yl)ethyl)amino)-6-(3-fluorophenyl)-5,6,7,8-tetrahydroquinazolin-2-yl)(methyl)amino)propyl)bicyclo[1.1.1]pentane-1-carboxylic acid], the AC50 on human NPR1 worked out at 77 nM; on monkey NPR1, 58 nM. For the same compound, on human NPR1, the “Human NPR1 Amax (% of ANP)” value was 98.462 % of ANP. On monkey NPR1 (monkey NPR1 CHO-K1 cells), the “Monkey NPR1 Amax (% of ANP)” value is on record as 98.535 % of ANP.

In the case of `CC[C@H]([C@H]1CC[C@H](C(=O)O)CC1)N(C)c1nc2c(c(N[C@@H](CN3CCC[C@H](C)C3)c3cnn(C)c3)n1)C[C@](C)(c1ccccc1)CC2` [Compound 7, (1R,4r)-4-((R)-1-(methyl((R)-6-methyl-4-(((R)-1-(1-methyl-1H-pyrazol-4-yl)-2-((S)-3-methylpiperidin-1-yl)ethyl)amino)-6-phenyl-5,6,7,8-tetrahydroquinazolin-2-yl)amino)propyl)cyclohexane-1-carboxylic acid], on human NPR1, the AC50 came out at 80 nM and the “Human NPR1 Amax (% of ANP)” value was 97.105 % of ANP. The AC50 at monkey NPR1 (setting [1]) was determined as 50 nM. Besides, the “Monkey NPR1 Amax (% of ANP)” value at monkey NPR1 (monkey NPR1 CHO-K1 cells) was 102.341 % of ANP.

On to `CC[C@@H](N(C)c1nc2c(c(N[C@@H](CN3CCC[C@H](C)C3)c3cnn(C)c3)n1)C[C@](C)(c1ccccc1)CC2)C12CC(C(=O)O)(C1)C2` [Compound 8, 3-((R)-1-(methyl((R)-6-methyl-4-(((R)-1-(1-methyl-1H-pyrazol-4-yl)-2-((S)-3-methylpiperidin-1-yl)ethyl)amino)-6-phenyl-5,6,7,8-tetrahydroquinazolin-2-yl)amino)propyl)bicyclo[1.1.1]pentane-1-carboxylic acid], for which, at human NPR1, the AC50 stood at 87 nM and the “Human NPR1 Amax (% of ANP)” value is on record as 92.409 % of ANP. For the same compound, the AC50 at monkey NPR1 (setting [1]) is 77 nM. Also, at monkey NPR1 (monkey NPR1 CHO-K1 cells), the “Monkey NPR1 Amax (% of ANP)” value was 101.778 % of ANP.

Regarding `CC[C@@H](N(C)c1nc2c(c(N[C@@H](CN3CCC[C@H](C)C3)c3cnn(C)c3)n1)C[C@H](c1cccc(F)c1)CC2)C12CC(C(=O)O)(C1)C2` [Compound 9, 3-((R)-1-(((R)-6-(3-fluorophenyl)-4-(((R)-1-(1-methyl-1H-pyrazol-4-yl)-2-((S)-3-methylpiperidin-1-yl)ethyl)amino)-5,6,7,8-tetrahydroquinazolin-2-yl)(methyl)amino)propyl)bicyclo[1.1.1]pentane-1-carboxylic acid], on human NPR1, the activity was half-maximal at 88 nM (AC50) and the “Human NPR1 Amax (% of ANP)” value was 95.056 % of ANP. Also, the AC50 on monkey NPR1 (setting [1]) worked out at 45 nM. Further, the “Monkey NPR1 Amax (% of ANP)” value at monkey NPR1 (monkey NPR1 CHO-K1 cells) is recorded as 95.667 % of ANP.

Regarding `CC[C@@H](Nc1nc2c(c(N[C@@H](CN3C4CCCC3CCC4)c3cnn(CC)c3)n1)C[C@@H](c1cccc(F)c1)CC2)[C@H]1CC[C@H](C(=O)O)CC1` [Compound 10, (1R,4r)-4-((R)-1-(((S)-4-(((R)-2-((1S,5S)-9-azabicyclo[3.3.1]nonan-9-yl)-1-(1-ethyl-1H-pyrazol-4-yl)ethyl)amino)-6-(3-fluorophenyl)-5,6,7,8-tetrahydroquinazolin-2-yl)amino)propyl)cyclohexane-1-carboxylic acid], the AC50 was 91 nM at human NPR1 and 73 nM on monkey NPR1. The “Human NPR1 Amax (% of ANP)” value at human NPR1 is on record as 96.065 % of ANP. For the same compound, the “Monkey NPR1 Amax (% of ANP)” value at monkey NPR1 (monkey NPR1 CHO-K1 cells) is 97.058 % of ANP.
